Our source for the IC50 values is BindingDB's records for patent US20230365590 (Shenzhen Chipscreen Biosciences, 2023).

The target in the experiment is Programmed cell death 1 ligand/protein 1 (Homo sapiens, UniProt Q15116+Q9NZQ7). The experiment in a line: In Vitro Inhibitory Activity Against PD-1/PD-L1 Binding. The protocol:
The experiment process was carried out according to the flow required in the operating manual of the test reagent.The process was as follows:(1) Experiment preparation: A test compound was diluted to different concentration gradients with the dilution buffer (the highest final concentration in a 20 μL final reaction system was 10 μM). The His-PD-1 protein was diluted to 800 nM (the final concentration in the 20 final reaction system was 100 nM). The PD-L1-Fc fusion protein was diluted to 16 nM (the final concentration was 2 nM). […] All tests were conducted by use of multiple holes.(4) The fluorescence detector Tecan (Spark 10M) was used to detect the fluorescence signal of each hole. The excitation wavelength was 320 nm, and the emission wavelengths for detection were 620 nm and 665 nm, respectively. The strength of PD-1/PD-L1 binding refers to a fluorescence signal ratio Em665/Em620.(5) Calculation formula of binding inhibition rate of test compound: Inhibition rate (%)=[1−(fluorescence signal ratio of detected hole−fluorescence signal ratio of 100% inhibition negative control)]/(fluorescence signal ratio of 0% inhibition positive control−fluorescence signal ratio of 100% inhibition negative control)×100%. […]

Sequence of Programmed cell death 1 ligand/protein 1 (Q9NZQ7 whole entry, the tested form may be a part): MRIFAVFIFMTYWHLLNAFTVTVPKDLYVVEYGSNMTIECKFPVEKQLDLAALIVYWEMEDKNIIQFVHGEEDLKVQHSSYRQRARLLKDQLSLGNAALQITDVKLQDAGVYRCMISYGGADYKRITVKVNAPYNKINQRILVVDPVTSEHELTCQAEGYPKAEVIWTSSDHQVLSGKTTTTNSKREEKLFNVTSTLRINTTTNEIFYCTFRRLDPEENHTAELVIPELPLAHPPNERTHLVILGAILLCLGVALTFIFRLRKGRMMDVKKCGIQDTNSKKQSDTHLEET
Sequence of Programmed cell death 1 ligand/protein 1 (Q15116 whole entry, the tested form may be a part): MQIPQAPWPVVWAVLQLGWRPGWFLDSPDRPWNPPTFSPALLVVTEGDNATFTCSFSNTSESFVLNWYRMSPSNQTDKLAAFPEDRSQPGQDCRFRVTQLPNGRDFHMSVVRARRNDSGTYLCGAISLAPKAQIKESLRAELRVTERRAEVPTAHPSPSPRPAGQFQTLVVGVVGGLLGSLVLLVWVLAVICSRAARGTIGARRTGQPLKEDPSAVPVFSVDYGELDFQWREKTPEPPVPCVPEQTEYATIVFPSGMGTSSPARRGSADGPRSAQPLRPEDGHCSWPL

Turning to `COCC12CCC(CCN3CCc4c(nc(C(=O)Nc5cccc(-c6cccc(NC(=O)c7nc8c(n7C)CCN(CCC79CCC(C(=O)O)(CC7)C9)C8)c6Cl)c5Cl)n4C)C3)(CC1)C2` [US20230365590, Compound I-6], the IC50 (commonly the point on the concentration scale where inhibition reaches its midpoint) was 1.17 nM.
